How the values were obtained:
full-length human EphB4 = molecular target: T1, full-length human EphB4 (Homo sapiens, UniProt P54760); assay: Cellular phosphorylation assay (sandwich ELISA, ProQinase); type: cell-based; conditions: mouse embryonic fibroblast cells overexpressing EphB4, stimulated with murine ephrinB2-Fc, read-out: cell IC50
T1 construct: stably transfected to overexpress full-length human EphB4; host or cells: Mouse embryonic fibroblast cells
T1 sequence (P54760 16-987): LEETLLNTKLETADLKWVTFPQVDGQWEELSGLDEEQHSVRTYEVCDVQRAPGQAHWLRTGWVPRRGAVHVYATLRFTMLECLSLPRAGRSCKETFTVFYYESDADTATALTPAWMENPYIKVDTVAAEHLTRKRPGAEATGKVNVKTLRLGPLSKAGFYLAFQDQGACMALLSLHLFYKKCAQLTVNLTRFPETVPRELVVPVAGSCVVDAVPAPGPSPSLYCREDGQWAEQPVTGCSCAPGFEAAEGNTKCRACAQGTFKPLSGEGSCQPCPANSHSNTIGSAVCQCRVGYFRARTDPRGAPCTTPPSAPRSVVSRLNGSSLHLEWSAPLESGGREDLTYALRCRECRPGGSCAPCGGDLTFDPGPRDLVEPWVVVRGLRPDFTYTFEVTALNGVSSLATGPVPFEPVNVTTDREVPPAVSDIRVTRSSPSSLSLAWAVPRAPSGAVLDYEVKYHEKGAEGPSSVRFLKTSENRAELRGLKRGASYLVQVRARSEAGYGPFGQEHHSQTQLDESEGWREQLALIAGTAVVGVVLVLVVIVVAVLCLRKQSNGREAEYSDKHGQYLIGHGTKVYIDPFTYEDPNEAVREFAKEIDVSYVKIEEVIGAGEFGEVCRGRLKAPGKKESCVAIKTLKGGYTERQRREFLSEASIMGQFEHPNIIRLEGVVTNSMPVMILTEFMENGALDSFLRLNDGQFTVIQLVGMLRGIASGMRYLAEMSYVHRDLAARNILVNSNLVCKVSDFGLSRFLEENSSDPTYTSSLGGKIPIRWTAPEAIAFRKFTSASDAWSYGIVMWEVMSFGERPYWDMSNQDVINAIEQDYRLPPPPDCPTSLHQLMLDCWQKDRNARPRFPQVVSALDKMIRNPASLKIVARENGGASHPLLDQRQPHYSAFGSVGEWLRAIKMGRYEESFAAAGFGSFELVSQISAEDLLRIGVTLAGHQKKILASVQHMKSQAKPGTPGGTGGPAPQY
Experimental: Cellular phosphorylation assays: The cellular phosphorylation experiments were performed at ProQinase GmbH. Mouse embryonic fibroblast cells, stably transfected to overexpress full-length human EphB4, were plated at 4×10^4 cells/well in DMEM supplemented with 10% FCS in 48-well culture dishes. Medium was replaced by DMEM without FCS before test compounds prediluted in 100% DMSO were added (final DMSO concentration of 1 %). After incubation for 90 min at 37 °C, cells were stimulated for 2 h at 4 °C using murine ephrinB2-Fc at a final concentration of 2 µg/ml. Quantification of EphB4 phosphorylation was assessed in a 96-well plate via sandwich ELISA using a myc capture antibody and an antiphosphotyrosine detection antibody. Table 4: Cell IC50 (µmol/l) in cells overexpressing EphB4

[1] = test system: A498 (kidney cancer) cells; assay: Cell culture and GI50 determination (resazurin), A-498; type: cell-based; conditions: Homo sapiens, A-498, 48h incubation
Experimental: Krek (Institute of Cell Biology, ETH Zurich) were cultured in Dulbelcco's modified Eagle's medium (DMEM) supplemented with 10% (v/v) fetal bovine serum. K562 leukemia cells obtained from Dr. Silvio Hemmi (Institute of Molecular Life Sciences, UZH) were cultured using RPMI medium supplemented with 5% (v/v) fetal bovine serum. All the media was additionally supplemented with 100 units/mL of penicillin, 100µg/mL of streptomycin, 4.5 g/L glucose, 0.11g/L sodium pyrubate and 2mM glutamine and the cells were grown at 37°C in 5% CO2 atmosphere with 80% relative humidity.
The old media was removed, the cells were washed with PBS (phosphate-buffered saline) and fresh media was added. […] Control cells were treated with the same DMSO concentrations. […] After 3 hours, the fluorescence was quantified using a fluorescence microplate reader (Biotek, FLx800™) at the respective excitation and emission wavelength of 560 and 590 nm. Resazurin becomes fluorescent under mitochondrial reduction and its emission directly correlates with the metabolic stability of the cells. […] All measurements were performed at least in triplicate (see table 1).

Row | IC50 (full-length human EphB4) [nM] | GI50 [1] [nM] | Structure (SMILES)
1 | 16 | – | NC(=O)c1c(N)n(-c2cccc(C(=O)Nc3cccc(C(F)(F)F)c3)c2)c2nc3ccccc3nc12 [Compound 10c, 2-amino-1-(3-((3-(trifluoromethyl)phenyl)carbamoyl)phenyl)-1H-pyrrolo[2,3-b]quinoxaline-3-carboxamide]
2 | 20 | 13400 | NC(=O)c1c(N)n(-c2cccc(NC(=O)c3cccc(C(F)(F)F)c3)c2)c2nc3ccccc3nc12 [Compound 10d, 2-amino-1-(3-(3-(trifluoromethyl)benzamido)phenyl)-1H-pyrrolo[2,3-b]quinoxaline-3-carboxamide]
